Laboratory results as given in US12655107B2 (The United States of America, as represented by the …, priority 2018, dated 2026).

Legend:
[1] = tested on: HOP-62; assay: NCI-60 cytotoxicity; type: cell-based, human; conditions: NCI-60 Non-Small Cell Lung Cancer, 48 h
Experimental: (§1) Cell growth inhibition (GI50 in Table 3) was calculated relative to cells without compound treatment and the time zero control.
(§2) Regarding Table 8, according to the NCI established procedures, the cells were incubated with 67 or 50 for 48 hours and stained with sulforhodamine B dye.

[2] = tested on: MDA-MB-231/ATCC; assay: NCI-60 cytotoxicity; type: cell-based, human; conditions: NCI-60 Breast Cancer, 48 h
Experimental: as §1, §2

[3] = tested on: NCI-H322M; assay: NCI-60 cytotoxicity; type: cell-based, human; conditions: NCI-60 Non-Small Cell Lung Cancer, 48 h
Experimental: as §1, §2

[4] = tested on: SF-539; assay: NCI-60 cytotoxicity; type: cell-based, human; conditions: NCI-60 CNS Cancer, 48 h
Experimental: as §1, §2

[5] = tested on: RXF 393; assay: NCI-60 cytotoxicity; type: cell-based, human; conditions: NCI-60 Renal Cancer, 48 h
Experimental: as §1, §2

[6] = tested on: NCI/ADR-RES; assay: NCI-60 cytotoxicity; type: cell-based, human; conditions: NCI-60 Ovarian Cancer, 48 h
Experimental: as §1, §2

[7] = tested on: NCI-H522; assay: NCI-60 cytotoxicity; type: cell-based, human; conditions: NCI-60 Non-Small Cell Lung Cancer, 48 h
Experimental: as §1, §2

[8] = tested on: UACC-62; assay: NCI-60 cytotoxicity; type: cell-based, human; conditions: NCI-60 Melanoma, 48 h
Experimental: as §1, §2

[9] = tested on: SNB-75; assay: NCI-60 cytotoxicity; type: cell-based, human; conditions: NCI-60 CNS Cancer, 48 h
Experimental: as §1, §2

[10] = tested on: HS 578T; assay: NCI-60 cytotoxicity; type: cell-based, human; conditions: NCI-60 Breast Cancer, 48 h
Experimental: as §1, §2

[11] = tested on: PC-3; assay: NCI-60 cytotoxicity; type: cell-based, human; conditions: NCI-60 Prostate Cancer, 48 h
Experimental: as §1, §2

[12] = tested on: T-47D; assay: NCI-60 cytotoxicity; type: cell-based, human; conditions: NCI-60 Breast Cancer, 48 h
Experimental: as §1, §2

[13] = tested on: CAKI-1; assay: NCI-60 cytotoxicity; type: cell-based, human; conditions: NCI-60 Renal Cancer, 48 h
Experimental: as §1, §2

[14] = tested on: HCT116; assay: NCI-60 cytotoxicity; type: cell-based, human; conditions: NCI-60 Colon Cancer, 48 h
Experimental: as §1, §2

[15] = tested on: MDA-MB-435; assay: NCI-60 cytotoxicity; type: cell-based, human; conditions: NCI-60 Melanoma, 48 h
Experimental: as §1, §2

[16] = tested on: NCI-H460; assay: NCI-60 cytotoxicity; type: cell-based, human; conditions: NCI-60 Non-Small Cell Lung Cancer, 48 h
Experimental: as §1, §2

[17] = tested on: U251; assay: NCI-60 cytotoxicity; type: cell-based, human; conditions: NCI-60 CNS Cancer, 48 h
Experimental: as §1, §2

[18] = tested on: EKVX; assay: NCI-60 cytotoxicity; type: cell-based, human; conditions: NCI-60 Non-Small Cell Lung Cancer, 48 h
Experimental: as §1, §2

[19] = tested on: OVCAR-5; assay: NCI-60 cytotoxicity; type: cell-based, human; conditions: NCI-60 Ovarian Cancer, 48 h
Experimental: as §1, §2

[20] = tested on: MCF7; assay: NCI-60 cytotoxicity; type: cell-based, human; conditions: NCI-60 Breast Cancer, 48 h
Experimental: as §1, §2

[21] = tested on: SK-MEL-5; assay: NCI-60 cytotoxicity; type: cell-based, human; conditions: NCI-60 Melanoma, 48 h
Experimental: as §1, §2

[22] = tested on: LOX IMVI; assay: NCI-60 cytotoxicity; type: cell-based, human; conditions: NCI-60 Melanoma, 48 h
Experimental: as §1, §2

[23] = tested on: UACC-257; assay: NCI-60 cytotoxicity; type: cell-based, human; conditions: NCI-60 Melanoma, 48 h
Experimental: as §1, §2

[24] = tested on: COLO 205; assay: NCI-60 cytotoxicity; type: cell-based, human; conditions: NCI-60 Colon Cancer, 48 h
Experimental: as §1, §2

[25] = tested on: OVCAR-4; assay: NCI-60 cytotoxicity; type: cell-based, human; conditions: NCI-60 Ovarian Cancer, 48 h
Experimental: as §1, §2

[26] = tested on: UO-31; assay: NCI-60 cytotoxicity; type: cell-based, human; conditions: NCI-60 Renal Cancer, 48 h
Experimental: as §1, §2

[27] = target: T1, Top1 (Homo sapiens, UniProt P11387); assay: Top1-mediated DNA cleavage assay; type: biochemical; conditions: graded relative to CPT at 1 μM, Table 7
T1 sequence (P11387 1-765): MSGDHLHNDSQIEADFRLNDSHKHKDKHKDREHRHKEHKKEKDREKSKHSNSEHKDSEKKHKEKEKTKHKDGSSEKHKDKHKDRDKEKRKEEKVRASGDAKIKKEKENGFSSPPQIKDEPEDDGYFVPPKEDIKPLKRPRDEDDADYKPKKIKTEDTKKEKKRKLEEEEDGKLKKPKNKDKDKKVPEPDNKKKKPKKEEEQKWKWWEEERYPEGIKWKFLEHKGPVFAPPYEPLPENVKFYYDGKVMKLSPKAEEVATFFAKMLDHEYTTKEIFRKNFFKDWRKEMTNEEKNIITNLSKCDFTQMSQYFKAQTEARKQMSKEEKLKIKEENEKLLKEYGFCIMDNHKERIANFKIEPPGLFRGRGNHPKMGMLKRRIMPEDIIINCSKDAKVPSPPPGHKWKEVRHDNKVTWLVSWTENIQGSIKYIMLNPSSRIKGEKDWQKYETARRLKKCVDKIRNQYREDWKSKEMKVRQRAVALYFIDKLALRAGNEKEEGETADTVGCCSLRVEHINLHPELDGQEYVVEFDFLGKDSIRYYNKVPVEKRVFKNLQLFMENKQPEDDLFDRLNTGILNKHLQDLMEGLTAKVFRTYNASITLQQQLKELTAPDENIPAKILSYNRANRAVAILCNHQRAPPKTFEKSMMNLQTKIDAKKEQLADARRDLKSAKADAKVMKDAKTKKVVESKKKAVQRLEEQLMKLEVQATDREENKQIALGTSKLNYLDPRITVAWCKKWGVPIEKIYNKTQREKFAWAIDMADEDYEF

[28] = target: T2, Top1-DNA covalent cleavage complexes in HCT116 cells (Homo sapiens, UniProt P11387); assay: Immunocomplex of enzyme to DNA (ICE) assay; type: cell-based; conditions: HCT116, 25, 50 and 100 μM
T2 construct: endogenous in cells; host or cells: HCT116 (human colon cancer)

[29] = tested on: HCT116 xenograft; assay: In vivo antitumor activity, HCT116 xenograft
[30] = tested on: MCF-7 xenograft; assay: In vivo antitumor activity, MCF-7 xenograft; set-up: species or system nude mice; tumor weight inhibitions (TWI): dose or concentration left out as unconfirmed

| Structure (SMILES) | GI50 [1] [µM] | GI50 [2] [µM] | GI50 [3] [µM] | GI50 [4] [µM] | GI50 [5] [µM] | GI50 [6] [µM] | GI50 [7] [µM] | GI50 [8] [µM] | GI50 [9] [µM] | GI50 [10] [µM] | GI50 [11] [µM] | GI50 [12] [µM] | GI50 [13] [µM] | GI50 [14] [µM] | GI50 [15] [µM] | GI50 [16] [µM] | GI50 [17] [µM] | GI50 [18] [µM] | GI50 [19] [µM] | GI50 [20] [µM] | other results |
| --- | --- | --- | --- | --- | --- | --- | --- | --- | --- | --- | --- | --- | --- | --- | --- | --- | --- | --- | --- | --- | --- |
| COc1cc2c(=O)n(CCN)c3c4cc5c(cc4ccc3c2cc1OC)OCO5 [Compound 67, 12-(2-aminoethyl)-2,3-dimethoxy-[1,3]dioxolo[4′,5′:4,5]benzo[1,2-c]phenanthridin-13(12-H)-one] | 0.399 | 1.28 | 0.99 | 1.06 | 0.929 | 1.01 | 0.0875 | 0.278 | 0.596 | 1.96 | 0.532 | 0.368 | 0.295 | 0.285 | 0.759 | 0.23 | 0.26 | 1.36 | 1.2 | 0.164 | GI50 [21]: 0.614 µM; GI50 [22]: 0.246 µM; GI50 [23]: 1.9 µM; GI50 [24]: 0.29 µM; GI50 [25]: 0.782 µM; GI50 [26]: 0.35 µM; TOP1 inhibition [27]: ++ (++, between 50% and 75% activity) |
| CNCCn1c(=O)c2cc(OC)c(OC)cc2c2ccc3cc4c(cc3c21)OCO4 [Compound 50, 2,3-dimethoxy-12-(2-(methylamino)ethyl)-[1,3]dioxolo[4′5′:4,5]benzo[1,2-c]phenanthridin-13(12H)-one] | 0.0439 | 0.362 | 0.147 | 0.124 | 0.16 | 0.165 | 0.0274 | 0.0451 | 0.0885 | 0.904 | 0.112 | 0.0757 | 0.0644 | 0.0515 | 0.118 | 0.0212 | 0.0394 | 0.202 | 0.183 | 0.0292 | GI50 [21]: 0.0909 µM; GI50 [22]: 0.0389 µM; GI50 [23]: 0.122 µM; GI50 [24]: 0.0605 µM; GI50 [25]: 0.154 µM; GI50 [26]: 0.104 µM; induction of cellular Top1cc [28]: induced the formation of cellular TOP1 cc in a dose-dependent manner; TOP1 inhibition [27]: +++ (+++, between 75% and 95% activity); tumor weight inhibitions (TWI) ([29]; HCT116 model, 20 μM dose (so in the source), ip daily): 76.9%; tumor volume ([29]; HCT116 xenograft, i.p. once every day): significantly reduced the tumor volume in a dose-dependent manner; tumor weight inhibitions (TWI) ([30]; MCF-7 model, ip daily): 71.8%; tumor volume ([30]; MCF-7 xenograft, 5, 10, 20 mg/kg ip daily): significantly reduced the tumor volume in a dose-dependent manner |
